{
  "source": "patent US20020076728A1",
  "about": "“Engineering affinity ligands for macromolecules” (priority 1997, published 2002)",
  "molecules": {"B1": {"name": "15-amino acid segment derived from affinity ligand isolate #109 (peptide)", "peptide": "RLCPKTDLGCMKDSD", "modifications": "also: C3-C10 disulfide stated only as a possibility", "notes": "also called truncated 15-amino acid segment of the isolate #109; C3-C10 loop"}},
  "key": {"[1]": {"conditions": "side-chain ionizable group of the amino acid type in proteins; cited from earlier work"}, "M13 phage": {"system": "M13 phage", "test": "Stability of M13 in various organic solvents (phage survival)", "conditions": "for surviving phage: incubation for 20 minutes with 80% solvent", "description": "Thus, if phage display libraries are used, it is of interest to determine whether organic solvents disrupt the phage."}, "tPA": {"biological_target": "tPA (Homo sapiens, UniProt P00750)", "sequence (P00750 36-562)": "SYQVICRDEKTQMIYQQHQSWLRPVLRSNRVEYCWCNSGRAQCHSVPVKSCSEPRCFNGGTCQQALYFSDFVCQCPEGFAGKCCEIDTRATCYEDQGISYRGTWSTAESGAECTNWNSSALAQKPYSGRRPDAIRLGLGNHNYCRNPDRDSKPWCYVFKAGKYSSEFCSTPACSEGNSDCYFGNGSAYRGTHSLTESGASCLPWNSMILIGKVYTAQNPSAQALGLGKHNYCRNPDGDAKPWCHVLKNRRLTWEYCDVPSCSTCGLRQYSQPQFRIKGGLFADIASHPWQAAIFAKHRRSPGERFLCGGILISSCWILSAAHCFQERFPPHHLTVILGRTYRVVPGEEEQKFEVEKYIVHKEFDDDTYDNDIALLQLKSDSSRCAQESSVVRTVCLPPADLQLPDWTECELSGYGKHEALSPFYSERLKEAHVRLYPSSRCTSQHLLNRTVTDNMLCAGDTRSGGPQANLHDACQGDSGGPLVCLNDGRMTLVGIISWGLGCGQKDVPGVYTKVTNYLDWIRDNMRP", "test": "15-amino acid segment of #109 bound to chromatographic support, tPA binding", "conditions": "bound to a chromatographic support; initial studies", "description": "As noted above, almost all of the variegation in amino acid positions used in building the CMTI library occurred between two cyteines at positions 3 and 10 of CMTI-I (see Table 3). In the parental CMTI protein, these cysteines form disulfide bonds with other cysteine residues elsewhere in the protein (see SEQ ID NO: 1), however with the successful isolation of affinity ligands from the CMTI library, a secondary library was conceptualized which was based on variegating a truncated 15-amino acid segment of the isolate #109 (see amino acids 1-15 of SEQ ID NO: 12). If the C3 and C10 cysteines of these members formed a disulfide bond, then a constrained loop having tPA binding properties might be obtained."}, "[2]": {"biological_target": "T1, recombinant human tissue-type plasminogen activator (human, UniProt P00750 36-562)", "T1 construct": "Bought; immobilised on Reacti-Gel agarose beads for phage work, in solution for column tests; also called tPA", "T1 sequence (P00750 36-562 limits assumed)": "as the sequence (P00750 36-562) above", "test": "peptide bound to a chromatographic support"}, "[3]": {"conditions": "10% solvent by volume in Luria broth"}, "[4]": {"conditions": "20% solvent by volume in Luria broth"}, "[5]": {"conditions": "40% solvent by volume in Luria broth"}, "[6]": {"conditions": "2% solvent by volume in Luria broth"}, "[7]": {"conditions": "5% solvent by volume in Luria broth"}, "[8]": {"conditions": "80% solvent by volume in Luria broth"}},
  "note": "Where “and” joins values, the source holds several entries; their conditions need not be identical. Identical values can stand only once. Ends that are not written are not given here.",
  "data": [
    {"molecule": "N[C@@H](CCC(=O)O)C(=O)O", "note": "[Glu]", "values": [
      {"measurement": "pKa range", "setting": "[1]", "result": "4.3-4.5"}
    ]},
    {"molecule": "CCO", "note": "[EtOH, ethanol]", "values": [
      {"measurement": "surviving phage", "setting": "M13 phage", "result": "no surviving phage"}
    ]},
    {"molecule": "N[C@@H](CS)C(=O)O", "note": "[Cys (not in disulfide)]", "values": [
      {"measurement": "pKa range", "setting": "[1]", "result": "9.0-9.5"}
    ]},
    {"molecule": "N[C@@H](Cc1c[nH]cn1)C(=O)O", "note": "[His, Histidine]", "values": [
      {"measurement": "pKa range", "setting": "[1]", "result": "6.0-7.0"}
    ]},
    {"molecule": "NCCCC[C@H](N)C(=O)O", "note": "[Lys]", "values": [
      {"measurement": "pKa range", "setting": "[1]", "result": "10.4-11.1"}
    ]},
    {"molecule": "CO", "note": "[MeOH, methanol]", "values": [
      {"measurement": "Survival after 20 min. (%)", "setting": "M13 phage; [3]", "result": 110, "unit": "%"},
      {"measurement": "Survival after 60 min. (%)", "setting": "M13 phage; [3]", "result": 80, "unit": "%"},
      {"measurement": "Survival after 20 min. (%)", "setting": "M13 phage; [4]", "result": 93, "unit": "%"},
      {"measurement": "Survival after 60 min. (%)", "setting": "M13 phage; [4]", "result": 84, "unit": "%"},
      {"measurement": "Survival after 20 min. (%)", "setting": "M13 phage; [5]", "result": 92, "unit": "%"},
      {"measurement": "Survival after 60 min. (%)", "setting": "M13 phage; [5]", "result": 84, "unit": "%"}
    ]},
    {"molecule": "CC(C)O", "note": "[IPA, isopropyl alcohol]", "values": [
      {"measurement": "surviving phage", "setting": "M13 phage", "result": "no surviving phage"}
    ]},
    {"molecule": "C[S+](C)[O-]", "note": "[DMSO, dimethylsulfoxide]", "values": [
      {"measurement": "Survival after 20 min. (%)", "setting": "M13 phage; [6]", "result": 84, "unit": "%"},
      {"measurement": "Survival after 60 min. (%)", "setting": "M13 phage; [6]", "result": 89, "unit": "%"},
      {"measurement": "Survival after 20 min. (%)", "setting": "M13 phage; [7]", "result": 68, "unit": "%"},
      {"measurement": "Survival after 60 min. (%)", "setting": "M13 phage; [7]", "result": 86, "unit": "%"},
      {"measurement": "Survival after 20 min. (%)", "setting": "M13 phage; [3]", "result": 96, "unit": "%"},
      {"measurement": "Survival after 60 min. (%)", "setting": "M13 phage; [3]", "result": 86, "unit": "%"},
      {"measurement": "Survival after 20 min. (%)", "setting": "M13 phage; [4]", "result": 73, "unit": "%"},
      {"measurement": "Survival after 60 min. (%)", "setting": "M13 phage; [4]", "result": 82, "unit": "%"},
      {"measurement": "Survival after 20 min. (%)", "setting": "M13 phage; [8]", "result": 1, "unit": "%"},
      {"measurement": "Survival after 60 min. (%)", "setting": "M13 phage; [8]", "result": ">1", "unit": "%"}
    ]},
    {"molecule": "CC#N", "note": "[ACN, acetonitrile]", "values": [
      {"measurement": "Survival after 20 min. (%)", "setting": "M13 phage; [3]", "result": 84, "unit": "%"},
      {"measurement": "Survival after 60 min. (%)", "setting": "M13 phage; [3]", "result": 74, "unit": "%"},
      {"measurement": "Survival after 20 min. (%)", "setting": "M13 phage; [4]", "result": 80, "unit": "%"},
      {"measurement": "Survival after 60 min. (%)", "setting": "M13 phage; [4]", "result": 91, "unit": "%"},
      {"measurement": "Survival after 20 min. (%)", "setting": "M13 phage; [5]", "result": 92, "unit": "%"},
      {"measurement": "Survival after 60 min. (%)", "setting": "M13 phage; [5]", "result": 89, "unit": "%"},
      {"measurement": "Survival after 20 min. (%)", "setting": "M13 phage; [8]", "result": "30% and 37%"},
      {"measurement": "Survival after 60 min. (%)", "setting": "M13 phage; [8]", "result": "8% and 3%"}
    ]},
    {"molecule": "N=C(N)NCCC[C@H](N)C(=O)O", "note": "[Arg]", "values": [
      {"measurement": "pKa range", "setting": "[1]", "result": 12.0}
    ]},
    {"molecule": "15-amino acid segment derived from affinity ligand isolate #109: truncated 15-amino acid segment of isolate #109 (amino acids 1-15 of SEQ ID NO: 12), C3-C10 disulfide loop (RLCPKTDLGCMKDSD; also: C3-C10 disulfide stated only as a possibility)", "values": [
      {"measurement": "binding of immobilized loop to tPA", "setting": "tPA", "result": "bound to tPA"}
    ]},
    {"molecule": "N[C@@H](CC(=O)O)C(=O)O", "note": "[Asp, aspartic acid]", "values": [
      {"measurement": "pKa range", "setting": "[1]", "result": "3.9-4.0"}
    ]},
    {"molecule": "CN(C)C=O", "note": "[DMF, dimethylformamide]", "values": [
      {"measurement": "surviving phage", "setting": "M13 phage", "result": "no surviving phage"}
    ]},
    {"molecule": "B1", "values": [
      {"measurement": "binding result", "setting": "[2]", "result": "binds"}
    ]}
  ]
}
